Measured values from US20040214832A1, “Piperazine derivative renin inhibitors” (priority 2003, published 2004).
pIC50: −log10 of the molar value.

Target: T1, human renin (Homo sapiens, UniProt P00797)
T1 sequence (P00797 67-406): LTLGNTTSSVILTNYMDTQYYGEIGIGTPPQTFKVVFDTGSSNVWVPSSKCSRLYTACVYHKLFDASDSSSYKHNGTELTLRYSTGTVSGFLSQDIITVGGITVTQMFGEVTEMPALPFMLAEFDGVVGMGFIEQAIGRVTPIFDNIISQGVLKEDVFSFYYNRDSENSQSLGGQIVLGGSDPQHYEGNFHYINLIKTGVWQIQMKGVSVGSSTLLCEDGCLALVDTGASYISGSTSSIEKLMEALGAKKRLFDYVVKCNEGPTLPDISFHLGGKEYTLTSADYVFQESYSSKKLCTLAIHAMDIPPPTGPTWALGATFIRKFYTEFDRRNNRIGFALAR
Experiment: Determination of renin IC50 by tGFP FRET assay
Assay type: biochemical
Conditions: Human recombinant renin, tandem GFP substrate 650 nM, 60 min incubation with compound, pH 7.4, 11-point curve
Summary of the method: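 Human recombinant renin (final 50.4 μIU) preincubated 60 min with compound (5% DMSO final) in 50 mM HEPES, 1 mM EDTA, 1% PEG 8000, 1 mM DTT, 0.1% BSA, pH 7.4, then tandem-GFP substrate added at 650 nM final. FRET fluorescence read; IC50 from 11-point curves spanning 100 μM–1 pM.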

| pIC50 | Compound |
| --- | --- |
| < 6.00 | COc1ccccc1COCCCOc1ccc(N2C(=O)CNC[C@@H]2COC(=O)c2ccc3ccccc3c2)cc1 [Example 58, naphthalene-2-carboxylic acid (2R)-1-{4-[3-(2-methoxybenzyloxy)-propoxy]-phenyl}-6-oxopiperazin-2-yl methyl ester] |
| < 6.00 | COc1ccccc1COCCCOc1ccc(N2C(=O)CNC[C@@H]2COC(=O)c2ccc(C)cc2)cc1 [Example 59, 4-methyl-benzoic acid (2R)-1-{4-[3-(2-methoxybenzyloxy)-propoxy]-phenyl}-6-oxopiperazin-2-yl methyl ester] |
| < 6.00 | COc1ccccc1COCCCOc1ccc(N2C(=O)CNC[C@@H]2COC(=O)c2ccc(Cl)cc2)cc1 [Example 60, 4-chloro-benzoic acid (2R)-1-{4-[3-(2-methoxybenzyloxy)-propoxy]-phenyl}-6-oxopiperazin-2-yl methyl ester] |
| < 6.00 | COc1ccccc1COCCCOc1ccc(N2C(=O)CNC[C@@H]2COC(=O)c2ccccc2)cc1 [Example 61, benzoic acid (2R)-1-{4-[3-(2-methoxybenzyloxy)-propoxy]-phenyl}-6-oxopiperazin-2-yl methyl ester] |
| 4.36 | COc1ccc(COC[C@H]2CNCCN2c2ccc(OCCCOCc3ccc(Cl)cc3)cc2)cc1 [Example 62, (2R)-1-{4-[3-(4-chlorobenzyloxy)-propoxy]-phenyl}-2-(4-methoxybenzyloxymethyl)-piperazine] |
| 4.94 | COc1ccc(COC[C@H]2CNCCN2c2ccc(OCCCOCc3ccc(Cl)c(Cl)c3)cc2)cc1 [Example 63, (2R)-1-{4-[3-(3,4-dichlorobenzyloxy)-propoxy]-phenyl}-2-(4-methoxybenzyloxymethyl)-piperazine] |
| 5.30 | COc1ccc(COC[C@H]2CNCCN2c2ccc(OCCCOCc3cccc(Cl)c3)cc2)cc1 [Example 64, (2R)-1-{4-[3-(3-chlorobenzyloxy)-propoxy]-phenyl}-2-(4-methoxybenzyloxymethyl)-piperazine] |
| < 6.00 | COc1ccc(COCCCOc2ccc(N3CCNC[C@@H]3COCc3ccc(OC)cc3)cc2)cc1 [Example 65, (2R)-2-(4-methoxybenzyloxymethyl)-1-{4-[3-(4-methoxybenzyloxy)-propoxy]-phenyl}-piperazine] |
| 4.80 | COc1ccc(COC[C@H]2CNCCN2c2ccc(OCCCOCc3ccccc3Cl)cc2)cc1 [Example 66, (2R)-1-{4-[3-(2-chlorobenzyloxy)-propoxy]-phenyl}-2-(4-methoxybenzyloxymethyl)-piperazine] |
| 5.36 | COc1ccc(COC[C@H]2CNCCN2c2ccc(OCCCOCc3cc(F)cc(F)c3)cc2)cc1 [Example 67, (2R)-1-{4-[3-(3,5-difluorobenzyloxy)-propoxy]-phenyl}-2-(4-methoxybenzyloxymethyl)-piperazine] |
| 4.22 | COc1ccc(COC[C@H]2CNCCN2c2ccc(OCCCOCc3ccc(C)cc3)cc2)cc1 [Example 68, (2R)-2-(4-methoxybenzyloxymethyl)-1-{4-[3-(4-methylbenzyloxy)-propoxy]-phenyl}-piperazine] |
| 4.81 | COc1ccc(COC[C@H]2CNCCN2c2ccc(OCCCOCc3cccc(OC)c3)cc2)cc1 [Example 69, (2R)-2-(4-methoxybenzyloxymethyl)-1-{4-[3-(3-methoxybenzyloxy)-propoxy]-phenyl}-piperazine] |
| < 6.00 | COc1ccc(COC[C@H]2CNCCN2c2ccc(COCCCOc3ccccc3OC)cc2)cc1 [Example 70, (2R)-2-(4-methoxybenzyloxymethyl)-1-{4-[3-(2-methoxyphenoxy)-propoxymethyl]-phenyl}-piperazine] |
| 4.52 | COc1ccc(COC[C@H]2CNCCN2c2ccc(COCCOCc3ccccc3OC)cc2)cc1 [Example 72, (2R)-1-{4-[2-(2-methoxybenzyloxy)-ethoxymethyl]-phenyl}-2-(4-methoxybenzyloxymethyl)-piperazine] |
| 5.39 | COc1ccccc1COCCOCc1ccc(N2C(=O)CNC[C@@H]2COCc2ccc(F)cc2)cc1 [Example 74, (6R)-6-(4-fluorobenzyloxymethyl)-1-{4-[2-(2-methoxybenzyloxy)-ethoxymethyl]-phenyl}-piperazin-2-one] |
| < 6.00 | COc1ccccc1OCCCOCc1ccc(N2C(=O)CNC[C@@H]2COCc2ccc(F)cc2)cc1 [Example 76, (6R)-6-(4-fluorobenzyloxymethyl)-1-{4-[3-(2-methoxyphenoxy)-propoxymethyl]-phenyl}-piperazin-2-one] |

| pIC50 | Compound |
| --- | --- |
| 4.88 | COc1ccccc1COCCCOc1ccc(N2C(=O)CNC[C@@H]2COc2ccc3ccccc3n2)cc1 [Example 77, (6R)-1-{4-[3-(2-methoxybenzyloxy)-propoxy]-phenyl}-6-(quinolin-2-yloxymethyl)-piperazin-2-one] |
| 4.12 | COc1ccccc1COCCCOc1ccc(N2C(=O)CNC[C@@H]2COc2cnccn2)cc1 [Example 79, (6R)-1-{4-[3-(2-methoxybenzyloxy)-propoxy]-phenyl}-6-(pyrazin-2-yloxymethyl)-piperazin-2-one] |
| 4.68 | COc1ccccc1COCCCOc1ccc(N2C(=O)CNC[C@@H]2COc2ccccn2)cc1 [Example 80, (6R)-1-{4-[3-(2-methoxybenzyloxy)-propoxy]-phenyl}-6-(pyridin-2-yloxymethyl)-piperazin-2-one] |
| 4.47 | COc1ccccc1COCCCOc1ccc(N2C(=O)CNC[C@@H]2COc2ncccn2)cc1 [Example 81, (6R)-1-{4-[3-(2-methoxybenzyloxy)-propoxy]-phenyl}-6-(pyrimidin-2-yloxymethyl)-piperazin-2-one] |
| < 6.00 | COc1ccccc1COCCCOc1ccc(N2C(=O)CNC[C@@H]2CNC(=O)c2ccccc2OC)cc1 [Example 82, 2-methoxy-N-([2R]-1-{4-[3-(2-methoxybenzyloxy)-propoxy]-phenyl}-6-oxopiperazin-2-ylmethyl)-benzamide] |
| < 6.00 | COc1ccccc1COCCCOc1ccc(N2C(=O)CNC[C@@H]2CNC(=O)c2ccc(Cl)cc2)cc1 [Example 83, 4-chloro-N-([2R]-1-{4-[3-(2-methoxybenzyloxy)-propoxy]-phenyl}-6-oxopiperazin-2-ylmethyl)-benzamide] |
| < 6.00 | COc1ccccc1COCCCOc1ccc(N2C(=O)CNC[C@@H]2CNC(=O)c2ccccc2)cc1 [Example 84, N-([2R]-1-{4-[3-(2-methoxy-benzyloxy)-propoxy]-phenyl}-6-oxopiperazin-2-ylmethyl)-benzamide] |
| < 6.00 | COc1ccccc1COCCCOc1ccc(N2C(=O)CNC[C@@H]2CNC(=O)c2ccc3ccccc3c2)cc1 [Example 85, naphthalene-2-carboxylic acid ([2R]-1-{4-[3-(2-methoxybenzyloxy)-propoxy]-phenyl}-6-oxopiperazin-2-ylmethyl)-amide] |
| < 6.00 | COc1ccccc1COCCCOc1ccc(N2C(=O)CNC[C@@H]2CNC(=O)c2ccccc2F)cc1 [Example 86, 2-fluoro-N-([2R]-1-{4-[3-(2-methoxybenzyloxy)-propoxy]-phenyl}-6-oxopiperazin-2-ylmethyl)-benzamide] |
| 6.22 | Fc1ccccc1COCCCOc1ccc(N2CCNC[C@@H]2COc2ccc3ccccc3c2)cc1 [Example 87, (2R)-1-{4-[3-(2-fluorobenzyloxy)-propoxy]-phenyl}-2-(naphthalen-2-yloxymethyl)-piperazine] |
| 5.70 | CCOc1ccccc1COCCCOc1ccc(N2CCNC[C@@H]2COc2ccc3ccccc3c2)cc1 [Example 88, (2R)-1-{4-[3-(2-ethoxybenzyloxy)-propoxy]-phenyl}-2-(naphthalen-2-yloxymethyl)-piperazine] |
| 4.63 | COc1cccc(COCCCOc2ccc(N3CCNC[C@@H]3COc3ccc4ccccc4c3)cc2)c1 [Example 89, (2R)-1-{4-[3-(3-methoxybenzyloxy)-propoxy]-phenyl}-2-(naphthalen-2-yloxymethyl)-piperazine] |
| 5.77 | COc1ccccc1COCCCOc1ccc(N2CCNC[C@@H]2COCc2ccc3ccccc3c2)cc1 [Example 90, (2R)-1-{4-[3-(2-methoxybenzyloxy)-propoxy]-phenyl}-2-(naphthalen-2-ylmethoxymethyl)-piperazine] |
| 5.99 | COc1ccccc1COCCCOc1ccc(N2CCNC[C@@H]2COCc2cccc(-c3ccccc3)c2)cc1 [Example 91, (2R)-2-(biphenyl-3-ylmethoxymethyl)-1-{4-[3-(2-methoxybenzyloxy)-propoxy]-phenyl}-piperazine] |
| 5.60 | COc1ccccc1COCCCOc1ccc(N2C(=O)CNC[C@@H]2COc2ccc(-c3ccccc3)cc2)cc1 [Example 92, (6R)-6-(biphenyl-4-yloxymethyl)-1-(4-[3-(2-methoxybenzyloxy)-propoxy]-phenyl)-piperazin-2-one] |

| Compound | pIC50 |
| --- | --- |
| COc1ccccc1OCCCCOc1ccc(N2C(=O)CNC[C@@H]2COCc2ccc(F)cc2)cc1 [Example 71, (6R)-6-(4-fluorobenzyloxymethyl)-1-{4-[4-(2-methoxyphenoxy)-butoxy]-phenyl}-piperazin-2-one] | 5.42 |
| COc1ccccc1OCCCCOc1ccc(N2C(=O)CNC[C@@H]2COc2ccc3ccccc3c2)cc1 [Example 73, (6R)-1-{4-[4-(2-methoxyphenoxy)-butoxy]-phenyl}-6-(naphthalen-2-yloxymethyl)-piperazin-2-one] | 5.76 |
| COc1ccc(COC[C@H]2CNCCN2c2ccc(OCCCCOc3ccccc3OC)cc2)cc1 [Example 75, (2R)-2-(4-methoxybenzyloxymethyl)-1-{4-[4-(2-methoxyphenoxy)-butoxy]-phenyl}-piperazine] | 4.38 |
